3 compounds from patent US20240360157A1, “TYK2 INHIBITORS” (BIOGEN MA INC., priority 2021, published 2024) can be followed below.

Holding throughout (assay type): biochemical
Assay [1] addresses human JAK2 catalytic kinase (JH1) domain (Homo sapiens (Human), UniProt O60674). Briefly: ADP-Glo Kinase Assay, recombinant JAK2 catalytic kinase (JH1) domain. The settings on record: recombinant JH1 domain 0.2 nM, 15 μM ATP, JAK3-974 peptide, mean, read-out: JAK2 biochem IC50 (nM) Mean. The procedure, abridged:
(§1)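 Kinase 4 nM JAK1 / 0.2 nM JAK2 / 0.3 nM JAK3 / 2 nM TYK2; 50 μM peptide; 100 min. Unused ATP depleted, ADP→ATP, luciferase luminescence. 11-pt 3-fold series from 10 or 1 μM; normalized, 4PL fit → IC50.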
A general note: ADP-Glo turns the ADP formed in a reaction into a luminescent signal.

Assay [2] has as its target human TYK2 catalytic kinase (JH1) domain (Homo sapiens (Human), UniProt P29597). Briefly: ADP-Glo Kinase Assay, recombinant TYK2 catalytic kinase (JH1) domain. To be noted: recombinant JH1 domain 2 nM, 10 μM ATP, JAK3-974 peptide, mean, read-out: TYK2 biochem IC50 (nM) Mean. The procedure, abridged: as §1
Assay [3] deals with human JAK1 catalytic kinase (JH1) domain (Homo sapiens (Human), UniProt P23458). Briefly: ADP-Glo Kinase Assay, recombinant JAK1 catalytic kinase (JH1) domain. To be noted: recombinant JH1 domain 4 nM, 35 μM ATP, JAK3-342 peptide, mean, read-out: JAK1 biochem IC50 (nM) Mean. The procedure, abridged: as §1
The target of assay [4] is human JAK3 catalytic kinase (JH1) domain (Homo sapiens (Human), UniProt P52333). The assay can be described thus: ADP-Glo Kinase Assay, recombinant JAK3 catalytic kinase (JH1) domain. To be noted: recombinant JH1 domain 0.3 nM, 4 μM ATP, JAK3-974 peptide, mean, read-out: JAK3 biochem IC50 (nM) Mean. The procedure, abridged:
as §1

human JAK1 catalytic kinase (JH1) domain, sequence (P23458 875-1153): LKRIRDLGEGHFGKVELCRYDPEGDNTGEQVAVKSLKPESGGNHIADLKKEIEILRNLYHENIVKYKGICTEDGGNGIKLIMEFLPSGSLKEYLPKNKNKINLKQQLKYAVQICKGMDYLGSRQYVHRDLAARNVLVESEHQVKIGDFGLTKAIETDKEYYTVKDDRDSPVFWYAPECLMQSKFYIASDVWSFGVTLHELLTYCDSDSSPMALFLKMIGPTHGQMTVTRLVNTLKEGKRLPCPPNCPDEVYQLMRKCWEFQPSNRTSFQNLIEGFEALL
human JAK2 catalytic kinase (JH1) domain, sequence (O60674 849-1124): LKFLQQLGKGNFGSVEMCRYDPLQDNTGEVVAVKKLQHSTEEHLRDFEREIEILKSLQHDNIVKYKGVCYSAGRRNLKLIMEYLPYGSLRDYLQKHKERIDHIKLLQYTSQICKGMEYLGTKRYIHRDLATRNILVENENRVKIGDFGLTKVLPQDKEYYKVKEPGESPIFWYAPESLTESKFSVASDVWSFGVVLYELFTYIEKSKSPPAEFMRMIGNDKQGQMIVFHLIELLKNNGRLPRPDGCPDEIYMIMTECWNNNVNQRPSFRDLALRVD
human JAK3 catalytic kinase (JH1) domain, sequence (P52333 822-1111): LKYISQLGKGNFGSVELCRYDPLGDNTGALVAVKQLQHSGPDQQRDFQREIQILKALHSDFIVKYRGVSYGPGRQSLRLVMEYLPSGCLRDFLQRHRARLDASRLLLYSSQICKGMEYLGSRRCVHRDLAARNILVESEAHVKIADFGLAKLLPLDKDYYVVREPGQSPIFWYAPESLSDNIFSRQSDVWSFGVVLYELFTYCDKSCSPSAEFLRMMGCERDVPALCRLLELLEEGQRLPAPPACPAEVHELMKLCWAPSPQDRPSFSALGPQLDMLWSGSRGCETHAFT
human TYK2 catalytic kinase (JH1) domain, sequence (P29597 897-1176): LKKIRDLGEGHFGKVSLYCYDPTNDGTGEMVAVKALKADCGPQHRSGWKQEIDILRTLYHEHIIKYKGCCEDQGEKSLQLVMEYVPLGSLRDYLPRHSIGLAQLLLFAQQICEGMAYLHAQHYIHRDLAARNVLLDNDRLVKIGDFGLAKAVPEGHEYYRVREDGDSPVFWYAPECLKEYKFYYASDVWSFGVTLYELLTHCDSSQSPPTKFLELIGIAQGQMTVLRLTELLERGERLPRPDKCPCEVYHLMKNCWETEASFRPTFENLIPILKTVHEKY

By IC50 is commonly meant the concentration needed to halve the response being measured. In the case of `CN(C)c1cc(-c2cc3c(N4CC5CCC(C4)N5C(=O)[C@@H]4C[C@H]4F)ccnn3c2)ccn1` [Example 128, (3-(6-(2-(dimethylamino)pyridin-4-yl)pyrrolo[1,2-b]pyridazin-4-yl)-3,8-diazabicyclo[3.2.1]octan-8-yl)((1S,2R)-2-fluorocyclopropyl)methanone], the IC50 in assay [1] came to 68 nM; in assay [2], 2.9 nM; in assay [3], 29 nM; in assay [4] it was 844 nM.

As to `O=C([C@@H]1C[C@H]1F)N1C2CCC1CN(c1ccnn3cc(-c4cnn(C(F)(F)F)c4)cc13)C2` [Example 18, ((1S,2R)-2-fluorocyclopropyl)(3-(6-(1-(trifluoromethyl)-1H-pyrazol-4-yl)pyrrolo[1,2-b]pyridazin-4-yl)-3,8-diazabicyclo[3.2.1]octan-8-yl)methanone], the IC50 was determined as 33 nM in assay [1], 1.5 nM in assay [2], 38 nM in assay [3] and 391 nM in assay [4].

Turning to `COc1cc(-n2cc3nccc(N4CC5CCC(C4)N5C(=O)[C@@H]4C[C@H]4F)c3n2)ccn1` [Example 37, ((1S,2R)-2-fluorocyclopropyl)(3-(2-(2-methoxypyridin-4-yl)-2H-pyrazolo[4,3-b]pyridin-7-yl)-3,8-diazabicyclo[3.2.1]octan-8-yl)methanone], the half-inhibitory concentration (IC50) is 88 nM in assay [1], 11 nM in assay [2], 72 nM in assay [3] and 868 nM in assay [4].
